# From publication PMC5515887, “Ruthenium-conjugated chrysin analogues modulate platelet activity, thrombus formation and haemostasis with enhanced efficacy” (Scientific Reports, 2017)
# Like-named read-outs stand apart in the source and are kept apart here.
# How the values were obtained:
# human washed platelets = assay: CRP-XL-induced aggregation of human washed platelets (optical aggregometry); assay type: cell-based; conditions: CRP-XL 0.5 μg/mL
# Description: To determine the effects of chrysin and thio-chrysin and their Ru-complexes in the modulation of platelet activation, aggregation assays were performed using cross-linked collagen-related peptide (CRP-XL) as a platelet agonist, by optical aggregometry. Firstly, to determine the effects of chrysin and its derivatives on isolated platelets, aggregation assays were performed using human washed platelets (devoid of plasma proteins and other blood cells).
# Figure 2 Effects of chrysin and its derivatives in washed platelet aggregation. […] The aggregation traces shown are representative of three separate experiments.
# (§1) The preparation of human platelets and aggregation assays were performed using standard protocols as described by us previously, [16]. Briefly, human blood was collected in 3.2% citrate containing vacutainers via venepuncture from healthy, aspirin-free individuals with informed consent in accordance with the methods approved by the University of Reading Research Ethics Committee. All methods were performed in accordance with the relevant institutional and national guidelines and regulations. Blood samples were centrifuged at 102 g for 20 minutes at room temperature to separate the PRP, which was used in aggregation, flow cytometry, static platelet adhesion, calcium mobilisation and clot retraction assays. For the preparation of washed platelets, 50 mL of blood samples were mixed with 7.5 mL of ACD (acid citrate dextrose) (20 g/L glucose, 25 g/L sodium citrate and 15 g/L citric acid) and centrifuged at 102 g for 20 minutes at room temperature. The PRP was carefully aspirated from the other blood cells prior to mixing with 3 mL of ACD and centrifuging at 1413 g for 10 minutes at room temperature. The resulting platelet pellet was re-suspended in modified Tyrodes-HEPES buffer (2.9 mM KCl, 134 mM NaCl, 0.34 mM Na2HPO4.12H20, 1 mM MgCl2, 12 mM NaHCO3, 20 mM HEPES, pH 7.3) and washed by centrifuging again at 1413 g for 10 minutes. The resulting platelet pellet was suspended in modified Tyrodes-HEPES buffer at a density of 4 × 10^8 cells/mL for aggregation, dense granule secretion, cellular uptake studies and calcium mobilisation assays. Human platelet aggregation was performed using CRP-XL as an agonist in the presence and absence of various concentrations of chrysin and its synthetic derivatives by optical aggregometry. A vehicle control [DMSO at a concentration of less than 0.1% (v/v)] was included in all the experiments. Dense granule secretion in platelets was determined by measuring the ATP release using the luciferin-luciferase reagent by lumi-aggregometry (Chrono-Log, USA). SDS-PAGE and immunoblotting analysis were performed using standard protocols. The rabbit anti-phospho-specific antibodies for human AKT pS473, FAK pY397 and Src pY527 were obtained from Abcam, UK and rabbit anti-human 14-3-3ζ (Santa Cruz Biotechnology, USA) was used to detect protein 14-3-3ζ as a loading control in immunoblot assays. The Cy5-conjugated goat anti-rabbit IgG (Life technologies, UK) was used as the secondary antibody.
# [1] = test system: human platelet-rich plasma (PRP); assay: CRP-XL-induced platelet aggregation in human platelet-rich plasma (optical aggregometry); assay type: cell-based
# Description: Therefore, to determine the effects of various concentrations of chrysin and its derivatives in the presence of plasma proteins, aggregation assays were performed using human platelet-rich plasma (PRP) and 0.5 μg/mL CRP-XL.
# Figure 3 Impact of chrysin and its derivatives on platelet activation in platelet-rich plasma. […] The platelet aggregation was monitored for 5 minutes. The traces shown are representative of three separate experiments.
# as §1
# [2] = test system: α-granule secretion in platelets; assay: P-selectin exposure by flow cytometry (marker for α-granule secretion); assay type: cell-based, human; conditions: PRP, CRP-XL 0.5 μg/mL
# Description: Platelets primarily contain two types of granules (α- and dense granules) and the activation of platelets releases the granule contents to the external environment, where they play important roles in the stimulation of additional platelets and their recruitment to the growing thrombus. […] However, chrysin affected α-granule secretion only at a minimum concentration of 50 μM in platelets.
# Figure 5 Chrysin and its derivatives affect granule secretion in platelets. […] The level of P-selectin (as a marker for α-granule secretion) was quantified using PECy5-labelled anti-human P-selectin antibodies by flow cytometry. […] R represents ‘resting’ platelets. […] Platelets were then activated with 0.5 μg/mL CRP-XL and the ATP release was monitored for 5 minutes by lumi-aggregometry. The traces shown are representative of three separate experiments.
# [3] = test system: platelet adhesion (integrins αIIbβ3 and α2β1); assay: Static platelet adhesion assay on collagen, CRP-XL and fibrinogen; assay type: cell-based, human; conditions: PRP; static conditions; in the presence and absence of integrilin (4 µM)
# Description: Integrins αIIbβ3 and α2β1 play critical roles in platelet adhesion to different matrix proteins such as fibrinogen and collagen, respectively.
# Micro titre plates (96 well) were coated with 1 μg/100 μL/well of fibrinogen, collagen or CRP-XL followed by incubation at 4 °C for overnight. Following the removal of unbound proteins/peptide, the wells were blocked with 1% bovine serum albumin in modified Tyrodes-HEPES buffer for 1 hour. The plates were then washed three times with modified Tyrode’s-HEPES buffer prior to adding human PRP (1 × 10^8 cells/mL, 50 μL/well) and incubated at room temperature for 1 hour. Non-adhered platelets were discarded and then the wells were washed with modified Tyrodes-HEPES buffer. Citrate lysis buffer (100 μL/well) was added and incubated for 1 hour at room temperature. Finally, 100 μL of 2 M NaOH was added to all the wells to stop the reaction and the absorbance was measured at 405 nm using a Fluostar Optima spectrofluorimeter (BMG Labtech, Germany). Experiments were performed both in the absence and presence of integrilin (4 μM) (an antagonist for integrin αIIbβ3).
# FAK = assay: Immunoblot of FAK phosphorylation at Y397 in CRP-XL activated platelets; assay type: cell-based, human; conditions: washed platelets, CRP-XL 0.5 μg/mL
# Text: The calcium traces (Ai and Bi) shown are representative of three separate experiments. […] The platelets were lysed and used for immunoblot analysis to detect the level of AKT phosphorylation at residue S473, FAK phosphorylation at Y397 and phosphorylation of Src at Y527. The level of 14-3-3ζ protein was detected as a loading control. The cropped images of the blots shown here are representative of three separate experiments. The uncropped full length blots are presented in Supplementary Information (Figure S8).
# Calcium mobilisation is associated with phosphoinositide 3-kinase (PI3K) signalling in platelets. Protein kinase B (AKT) is a downstream effector of PI3K and a key marker for the PI3K/AKT signalling pathway. […]
# The preparation of human platelets and aggregation assays were performed using standard protocols as described by us previously, [16]. Briefly, human blood was collected in 3.2% citrate containing vacutainers via venepuncture from healthy, aspirin-free individuals with informed consent in accordance with the methods approved by the University of Reading Research Ethics Committee. […] Dense granule secretion in platelets was determined by measuring the ATP release using the luciferin-luciferase reagent by lumi-aggregometry (Chrono-Log, USA). […]
# [4] = molecular target: T1, human serum albumin (HSA) (Homo sapiens, UniProt P02768); assay: HSA binding assay (TRANSIL XL HSA binding kit)
# T1 construct: purchased Sovicell, Germany
# Description: HSA binding assay was performed using TRANSIL^XL binding kit (Sovicell, Germany) according to the manufacturer’s protocol. […] The plate was then incubated on a plate shaker at 100 g for 12 minutes followed by centrifugation for 10 minutes at 750 g.
# T1 sequence (P02768 25-609): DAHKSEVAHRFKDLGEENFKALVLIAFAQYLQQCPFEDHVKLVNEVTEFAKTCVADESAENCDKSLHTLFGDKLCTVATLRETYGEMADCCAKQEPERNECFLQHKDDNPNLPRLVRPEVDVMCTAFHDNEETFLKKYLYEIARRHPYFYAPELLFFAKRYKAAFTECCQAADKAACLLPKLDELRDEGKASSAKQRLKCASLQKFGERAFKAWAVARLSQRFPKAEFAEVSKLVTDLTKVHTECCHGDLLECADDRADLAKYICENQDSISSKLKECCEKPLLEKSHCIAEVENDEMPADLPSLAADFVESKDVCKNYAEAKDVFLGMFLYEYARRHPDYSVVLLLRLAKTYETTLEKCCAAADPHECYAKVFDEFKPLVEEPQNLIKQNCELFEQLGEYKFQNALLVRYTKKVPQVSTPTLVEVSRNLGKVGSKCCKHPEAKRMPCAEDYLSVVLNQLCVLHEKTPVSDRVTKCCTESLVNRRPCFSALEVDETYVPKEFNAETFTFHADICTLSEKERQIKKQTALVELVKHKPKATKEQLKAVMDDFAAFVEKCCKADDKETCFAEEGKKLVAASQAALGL
Molecule,reduction in CRP-XL-induced platelet aggregation (human washed platelets; 6.25 μM compound),effect on CRP-XL-induced platelet aggregation in washed platelets (human washed platelets),"effect on platelet aggregation at lower concentrations ([1]; PRP, 6.25 μM and 12.5 μM compound, CRP-XL 0.5 μg/mL)","reduction in platelet aggregation ([1]; PRP, 100 μM compound, CRP-XL 0.5 μg/mL)",concentrations that significantly inhibit α-granule secretion [2] [µM],"effect on platelet adhesion to collagen, CRP-XL or fibrinogen [3]",effect on FAK phosphorylation at Y397 (FAK),Kd [4] [µM],"fraction unbound at 12 min, 50 µM ([4]; human, plasma)","effect on platelet aggregation in PRP ([1]; PRP, CRP-XL 0.5 μg/mL)",greater inhibition of platelet function and thrombus formation in vitro than chrysin ([1]; physiologically relevant conditions such as platelet-rich plasma and whole blood) [fold],inhibition of α-granule secretion (P-selectin) ([2]; 100 μM compound),fraction bound to plasma (fb) ([4]; TRANSIL XL HSA binding kit) [%],"Kd ([4]; TRANSIL XL HSA binding kit, 50 µM compound, read-out: binding affinity (Kd) to HSA) [µM]"
O=c1cc(-c2ccccc2)oc2cc(O)cc(O)c12 [chrysin],approximately 80%,inhibited CRP-XL (0.5 μg/mL)-induced aggregation in washed platelets in a concentration-dependent manner,did not exhibit significant effects,around 40%,≥ 50,did not affect platelet adhesion,inhibited their phosphorylation in a concentration-dependent manner,1.93,0.003,–,–,–,–,–
chlorido [(5-oxo-κO)-7-hydroxy-(2-phenyl)-4H-chromen-4-thionato-κS] (η6-p-cymene)ruthenium(II) [Ru-thio-chrysin],–,inhibited CRP-XL-induced platelet aggregation in a concentration-dependent manner,–,–,≥ 12.5,did not affect platelet adhesion,inhibited their phosphorylation in a concentration-dependent manner,–,–,significant effect at lower concentrations including 6.25 μM,4,approximately 80%,< 29.6,1400
